pIC50: −log10 of the molar value. Read-outs that look alike come from different tables or passages of the source. Where no end group is shown, it is not given here.
Tests used:
Assay in all cases: biochemical
Type in all cases: binding
HLA-B*18:01 = target: T1, HLA-B*18:01 (Homo sapiens, UniProt P01889, A329T/A93T/A95T/C349S/D201E/D54G/D98Y/E176V/E187T/E204Q/E69T/K202T/Q94N/R155S/R180L/S121R/V306I/Y140S/Y195H/Y33H/Y91S); conditions: for IC50: read-out: Binding in vitro (IC50, [nM])
T1 construct: made in house

HLA-B*44:03 = target: T2, HLA-B*44:03 (Homo sapiens, UniProt P01889, A223V/A65T/A93T/A95T/D201E/D98Y/E176V/E187L/E204Q/E69K/G107R/H137Y/K202T/L105A/L119I/N104T/N87E/Q56L/Q94N/R106L/R155S/R180L/S101N/S121R/S35A/S48T/T118I/V36M/W191S/Y140D/Y91S); conditions: synthetic peptide, purified MHC
T2 construct: made in house

HLA-A*01:01 = target: T3, HLA-A*01:01 (Homo sapiens, UniProt P04439, A114D/A174V/A182V/D101N/D185E/E176A/E190D/L180R/Q94H/R68K/S129P/T187R/V100A/V91M/W191G); conditions: synthetic peptide, purified MHC
T3 construct: made in house

HLA-A*26:01 = HLA-A*26:01 (Homo sapiens, UniProt P04439, A114D/A173T/A270S/D101N/D185E/E277Q/E87N/F33Y/G231S/I121R/I218V/K168Q/L180W/L300P/L318F/P208A/P217A/Q86R/Q94H/R138Q/S129P/T187R/T323A/T345S/V100A/V358M)
HLA-B*15:01 = target: T4, HLA-B*15:01 (Homo sapiens, UniProt P01889, A329T/A93T/A95T/C349S/D201E/D98Y/E187L/E204Q/E69M/E70A/K202T/N87E/Q94N/R155S/R180W/S121R/S35A/S48A/V306I/V36M/Y140S/Y91S)
T4 construct: made in house

HLA-B*44:02 = target: T5, HLA-B*44:02 (Homo sapiens, UniProt P01889, A223V/A65T/A93T/A95T/D201E/D98Y/E176V/E187L/E204Q/E69K/G107R/H137Y/K202T/L105A/L119I/N104T/N87E/Q56L/Q94N/R106L/R155S/R180D/S101N/S121R/S35A/S48T/T118I/V36M/W191S/Y140D/Y91S); conditions: synthetic peptide, purified MHC
T5 construct: made in house

HLA-B*51:01 = target: T6, HLA-B*51:01 (Homo sapiens, UniProt P01889, A329T/A93T/A95T/C349S/D138N/D201E/D98Y/E187L/E204Q/E69T/G107R/I218V/K202T/L105A/L119W/N104I/Q94N/R106L/R155S/R180L/S101N/S121T/S35A/S48A/V306I/V36M/Y195H/Y91F); conditions: synthetic peptide, purified MHC
T6 construct: made in house

HLA-A*02:01 = target: T7, HLA-A*02:01 (Homo sapiens, UniProt P04439, D140Y/D185E/D98H/E176V/E277Q/G131W/G231S/I119V/I121R/I166T/I218V/L300P/L318F/N151K/N90K/P208A/P217A/Q86G/Q94H/R138H/R169H/T345S)
T7 construct: made in house

With DEFVVVTV the IC50 (HLA-B*18:01) was < 0.5 nM.
With APRITFGGP [Peptide 29] the pIC50 (HLA-B*18:01) was < 4.15, the pIC50 (HLA-B*44:03) was < 4.15 and the pIC50 (HLA-A*01:01) was < 4.15. The pIC50 (HLA-A*26:01) was < 4.15, the pIC50 (HLA-B*15:01) was < 4.15 and the pIC50 (HLA-B*44:02) was < 4.15. For the same sequence, the pIC50 (HLA-B*51:01) was < 4.15.
With KNIDGYFKIY the IC50 (HLA-B*18:01) was > 70000 nM.
GLITLSYHL was tested, and the IC50 (HLA-A*02:01; HLA allele A0201, peptide detected in HEK293T, IC50 <500 nM indicates binding, read-out: Binding in vitro (IC50, [nM])) was < 0.5 nM and the pIC50 (HLA-A*02:01; read-out: IC50, binding to HLA-A*02:01) was > 9.30.
